Measurements as given in article PMC12155096 (International Journal of Molecular Sciences, 2025).
Structures can show the parent of a compound that is named as a salt.

These compounds were tested against T1, human CYP2D6 (Homo sapiens, UniProt P10635) (assay: not given). Details: human.
T1 sequence (P10635 whole entry): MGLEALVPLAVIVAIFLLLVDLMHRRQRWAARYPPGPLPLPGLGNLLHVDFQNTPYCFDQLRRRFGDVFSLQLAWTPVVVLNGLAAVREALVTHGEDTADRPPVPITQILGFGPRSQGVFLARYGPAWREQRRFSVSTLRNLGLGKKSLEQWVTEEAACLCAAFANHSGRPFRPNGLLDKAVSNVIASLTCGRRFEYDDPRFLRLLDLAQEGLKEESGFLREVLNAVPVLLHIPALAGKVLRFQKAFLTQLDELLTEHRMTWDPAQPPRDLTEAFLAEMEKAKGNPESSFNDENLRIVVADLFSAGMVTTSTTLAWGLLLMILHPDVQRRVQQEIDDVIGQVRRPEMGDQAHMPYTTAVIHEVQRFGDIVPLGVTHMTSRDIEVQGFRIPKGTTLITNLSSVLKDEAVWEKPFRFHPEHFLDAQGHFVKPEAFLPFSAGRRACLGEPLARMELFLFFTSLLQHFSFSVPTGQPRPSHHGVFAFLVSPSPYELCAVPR

| Compound | CYP2D6 Efficacy (in parenthesis) |
| --- | --- |
| NC(=O)C(c1ccccc1)(c1ccccc1)[C@@H]1CCN(CCc2ccc3c(c2)CCO3)C1 [Darifenacin hydrobromide] | 0.41 ± 0.07 (-99 ± 4) % |

The compounds below were run against Photinus pyralis (firefly) luciferase (Photinus pyralis, UniProt P08659) (assay: biochemical). Details: not given.
Format: biochemical

Photinus pyralis (firefly) luciferase, sequence (P08659 whole entry): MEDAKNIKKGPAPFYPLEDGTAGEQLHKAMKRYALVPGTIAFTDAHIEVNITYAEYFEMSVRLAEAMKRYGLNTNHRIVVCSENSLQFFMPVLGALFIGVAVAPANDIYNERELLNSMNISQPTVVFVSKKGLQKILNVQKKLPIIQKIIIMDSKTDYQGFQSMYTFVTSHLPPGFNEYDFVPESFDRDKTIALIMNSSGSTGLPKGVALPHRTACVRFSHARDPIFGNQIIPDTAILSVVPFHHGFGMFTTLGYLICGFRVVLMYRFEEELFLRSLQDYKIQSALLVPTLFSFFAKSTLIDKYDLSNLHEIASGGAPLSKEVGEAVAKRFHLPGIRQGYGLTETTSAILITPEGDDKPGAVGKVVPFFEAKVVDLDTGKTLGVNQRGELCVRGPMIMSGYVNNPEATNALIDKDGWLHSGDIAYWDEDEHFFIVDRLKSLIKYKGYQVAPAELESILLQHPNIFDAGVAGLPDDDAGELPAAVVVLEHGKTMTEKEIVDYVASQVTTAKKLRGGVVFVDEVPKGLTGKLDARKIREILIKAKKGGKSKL

| Compound | Luciferase IC50 | Luciferase IC50 (half-maximal inhibitory concentration) |
| --- | --- | --- |
| CN1CCC(N(Cc2ccccc2)c2ccccc2)CC1 [Bamipine] | Inactive |  |
| NC(=O)C(c1ccccc1)(c1ccccc1)[C@@H]1CCN(CCc2ccc3c(c2)CCO3)C1 [Darifenacin hydrobromide] |  | Inactive |
| C1CCC(NC2CCCCC2)CC1 [Dicyclohexylamine] | Inactive |  |
| OC(CCCN1CCCCC1)(c1ccccc1)c1ccccc1 [Diphenidol] |  | Inactive |
| CC(Cc1ccccc1)N(C)Cc1ccco1 (stereo not shown) [Furfenorex] | Inactive |  |
| CN1[C@@H]2CC[C@H]1C[C@@H](NC(=O)n1c(=O)[nH]c3ccccc31)C2 [Itasetron] |  | Inactive |
| c1ccc2c(c1)Sc1ccccc1N2CC1CN2CCC1CC2 (stereo not shown) [Mequitazine] |  | Inactive |
| CN1CCCCC1CCN1c2ccccc2Sc2ccc([S+](C)[O-])cc21 (stereo not shown) [Mesoridazine] |  | Inactive |
| CN1CCCC(CC2c3ccccc3Sc3ccccc32)C1 (stereo not shown) [Metixene hydrochloride] |  | Inactive |
| O=C(CCCN1CCC2(CC1)C(=O)NCN2c1ccccc1)c1ccc(F)cc1 [Spiperone] | Inactive |  |
| CCCC[N+](CCCC)(CCCC)CCCC [Tetrabutylammonium bromide] | Inactive |  |
| COC1CC(=C(c2cccs2)c2cccs2)C[N+](C)(C)C1 (stereo not shown) [Timepidium bromide] | Inactive |  |

The compounds below were run against T2, human CYP2C19 (Homo sapiens, UniProt P33261) (assay: biochemical). Details: not given.
T2 sequence (P33261 whole entry): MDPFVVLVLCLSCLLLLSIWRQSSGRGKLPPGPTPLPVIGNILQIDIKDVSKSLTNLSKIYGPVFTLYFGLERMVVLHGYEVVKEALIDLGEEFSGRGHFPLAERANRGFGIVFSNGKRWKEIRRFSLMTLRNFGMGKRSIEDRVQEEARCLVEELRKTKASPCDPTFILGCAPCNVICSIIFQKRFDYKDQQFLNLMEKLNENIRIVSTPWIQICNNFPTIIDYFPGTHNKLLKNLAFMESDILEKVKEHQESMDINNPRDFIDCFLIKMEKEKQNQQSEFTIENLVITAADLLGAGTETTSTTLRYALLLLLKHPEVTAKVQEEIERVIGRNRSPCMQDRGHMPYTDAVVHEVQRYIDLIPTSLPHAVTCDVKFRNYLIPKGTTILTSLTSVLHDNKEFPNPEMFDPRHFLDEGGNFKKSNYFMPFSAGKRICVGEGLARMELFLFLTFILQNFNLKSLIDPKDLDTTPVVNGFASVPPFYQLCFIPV

| Compound | IC50 |
| --- | --- |
| CN1CCC(N(Cc2ccccc2)c2ccccc2)CC1 [Bamipine] | 36800 nM |

Same assay, conditions: CYP2C19 IC50

| Compound | IC50 |
| --- | --- |
| CC(Cc1ccccc1)N(C)Cc1ccco1 (stereo not shown) [Furfenorex] | 6650 nM |

Same assay, conditions: CYP2C19 IC50 (half-maximal inhibitory concentration)

| Compound | IC50 |
| --- | --- |
| OC(CCCN1CCCCC1)(c1ccccc1)c1ccccc1 [Diphenidol] | 32700 nM |
| CN1CCCC(CC2c3ccccc3Sc3ccccc32)C1 (stereo not shown) [Metixene hydrochloride] | 7760 nM |

These compounds were tested against T1, human CYP2D6 (assay: biochemical). Details: not given.

| Compound | IC50 |
| --- | --- |
| CN1CCC(N(Cc2ccccc2)c2ccccc2)CC1 [Bamipine] | 380 nM |
| C1CCC(NC2CCCCC2)CC1 [Dicyclohexylamine] | 280 nM |
| CN1[C@@H]2CC[C@H]1C[C@@H](NC(=O)n1c(=O)[nH]c3ccccc31)C2 [Itasetron] | 870 ± 100 nM |

Same assay, conditions: CYP2D6 IC50

| Compound | IC50 |
| --- | --- |
| CC(Cc1ccccc1)N(C)Cc1ccco1 (stereo not shown) [Furfenorex] | 850 nM |
| CCCC[N+](CCCC)(CCCC)CCCC [Tetrabutylammonium bromide] | 10 nM |
| COC1CC(=C(c2cccs2)c2cccs2)C[N+](C)(C)C1 (stereo not shown) [Timepidium bromide] | 290 nM |

Same assay, conditions: CYP2D6 IC50 (half-maximal inhibitory concentration)

| Compound | IC50 |
| --- | --- |
| NC(=O)C(c1ccccc1)(c1ccccc1)[C@@H]1CCN(CCc2ccc3c(c2)CCO3)C1 [Darifenacin hydrobromide] | 410 nM |
| OC(CCCN1CCCCC1)(c1ccccc1)c1ccccc1 [Diphenidol] | 90 nM |
| c1ccc2c(c1)Sc1ccccc1N2CC1CN2CCC1CC2 (stereo not shown) [Mequitazine] | 290 nM |
| CN1CCCCC1CCN1c2ccccc2Sc2ccc([S+](C)[O-])cc21 (stereo not shown) [Mesoridazine] | 90 nM |
| CN1CCCC(CC2c3ccccc3Sc3ccccc32)C1 (stereo not shown) [Metixene hydrochloride] | 440 nM |

Same assay, conditions: CYP2D6 IC50, mean ± standard deviation from three experiments

| Compound | IC50 |
| --- | --- |
| O=C(CCCN1CCC2(CC1)C(=O)NCN2c1ccccc1)c1ccc(F)cc1 [Spiperone] | 790 ± 180 nM |

Each compound was assayed against T3, human CYP1A2 (Homo sapiens, UniProt P05177) (assay: not given). Details: not given.
T3 sequence (P05177 1-516): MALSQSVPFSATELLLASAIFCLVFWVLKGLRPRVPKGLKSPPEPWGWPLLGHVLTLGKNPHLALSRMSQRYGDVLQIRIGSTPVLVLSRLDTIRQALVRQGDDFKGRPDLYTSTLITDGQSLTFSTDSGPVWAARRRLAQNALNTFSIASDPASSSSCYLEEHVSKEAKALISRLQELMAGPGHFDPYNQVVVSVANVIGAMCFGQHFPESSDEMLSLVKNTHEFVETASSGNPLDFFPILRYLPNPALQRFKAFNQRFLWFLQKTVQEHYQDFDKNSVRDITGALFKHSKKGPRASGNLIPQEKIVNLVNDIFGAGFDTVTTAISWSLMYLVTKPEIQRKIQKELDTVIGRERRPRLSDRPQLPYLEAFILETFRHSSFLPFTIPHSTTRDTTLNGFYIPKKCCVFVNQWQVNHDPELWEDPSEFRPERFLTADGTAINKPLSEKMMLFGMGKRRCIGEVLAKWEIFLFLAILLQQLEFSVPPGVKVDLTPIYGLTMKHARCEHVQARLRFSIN

| Compound | CYP1A2 IC50 | CYP1A2 IC50 (half-maximal inhibitory concentration) |
| --- | --- | --- |
| CN1CCC(N(Cc2ccccc2)c2ccccc2)CC1 [Bamipine] | Inactive |  |
| NC(=O)C(c1ccccc1)(c1ccccc1)[C@@H]1CCN(CCc2ccc3c(c2)CCO3)C1 [Darifenacin hydrobromide] |  | Inactive |
| C1CCC(NC2CCCCC2)CC1 [Dicyclohexylamine] | Inactive |  |
| OC(CCCN1CCCCC1)(c1ccccc1)c1ccccc1 [Diphenidol] |  | Inactive |
| CC(Cc1ccccc1)N(C)Cc1ccco1 (stereo not shown) [Furfenorex] | Inactive |  |
| CN1[C@@H]2CC[C@H]1C[C@@H](NC(=O)n1c(=O)[nH]c3ccccc31)C2 [Itasetron] |  | Inactive |
| c1ccc2c(c1)Sc1ccccc1N2CC1CN2CCC1CC2 (stereo not shown) [Mequitazine] |  | Inactive |
| CN1CCCCC1CCN1c2ccccc2Sc2ccc([S+](C)[O-])cc21 (stereo not shown) [Mesoridazine] |  | Inactive |
| CN1CCCC(CC2c3ccccc3Sc3ccccc32)C1 (stereo not shown) [Metixene hydrochloride] |  | Inactive |
| O=C(CCCN1CCC2(CC1)C(=O)NCN2c1ccccc1)c1ccc(F)cc1 [Spiperone] | Inactive |  |
| CCCC[N+](CCCC)(CCCC)CCCC [Tetrabutylammonium bromide] | Inactive |  |
| COC1CC(=C(c2cccs2)c2cccs2)C[N+](C)(C)C1 (stereo not shown) [Timepidium bromide] | Inactive |  |

What follows are compounds tested against human CYP2C9 (Homo sapiens, UniProt P11712) (assay: not given). Details: not given.
human CYP2C9, sequence (P11712 whole entry): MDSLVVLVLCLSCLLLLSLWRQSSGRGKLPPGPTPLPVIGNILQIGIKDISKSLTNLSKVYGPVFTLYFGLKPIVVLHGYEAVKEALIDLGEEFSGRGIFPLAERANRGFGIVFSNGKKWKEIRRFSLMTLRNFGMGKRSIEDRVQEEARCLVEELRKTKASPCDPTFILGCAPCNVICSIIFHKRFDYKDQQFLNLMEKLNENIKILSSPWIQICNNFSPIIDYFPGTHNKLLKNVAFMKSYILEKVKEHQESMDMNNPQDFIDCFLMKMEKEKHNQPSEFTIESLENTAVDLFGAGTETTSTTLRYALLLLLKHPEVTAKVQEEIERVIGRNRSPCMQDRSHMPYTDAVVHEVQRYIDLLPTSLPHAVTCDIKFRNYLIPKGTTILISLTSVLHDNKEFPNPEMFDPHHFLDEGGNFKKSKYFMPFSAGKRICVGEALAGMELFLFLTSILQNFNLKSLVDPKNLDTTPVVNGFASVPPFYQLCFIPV

| Compound | CYP2C9 IC50 | CYP2C9 IC50 (half-maximal inhibitory concentration) |
| --- | --- | --- |
| CN1CCC(N(Cc2ccccc2)c2ccccc2)CC1 [Bamipine] | Inactive |  |
| NC(=O)C(c1ccccc1)(c1ccccc1)[C@@H]1CCN(CCc2ccc3c(c2)CCO3)C1 [Darifenacin hydrobromide] |  | Inactive |
| C1CCC(NC2CCCCC2)CC1 [Dicyclohexylamine] | Inactive |  |
| OC(CCCN1CCCCC1)(c1ccccc1)c1ccccc1 [Diphenidol] |  | Inactive |
| CC(Cc1ccccc1)N(C)Cc1ccco1 (stereo not shown) [Furfenorex] | Inactive |  |
| CN1[C@@H]2CC[C@H]1C[C@@H](NC(=O)n1c(=O)[nH]c3ccccc31)C2 [Itasetron] |  | Inactive |
| c1ccc2c(c1)Sc1ccccc1N2CC1CN2CCC1CC2 (stereo not shown) [Mequitazine] |  | Inactive |
| CN1CCCCC1CCN1c2ccccc2Sc2ccc([S+](C)[O-])cc21 (stereo not shown) [Mesoridazine] |  | Inactive |
| CN1CCCC(CC2c3ccccc3Sc3ccccc32)C1 (stereo not shown) [Metixene hydrochloride] |  | Inactive |
| O=C(CCCN1CCC2(CC1)C(=O)NCN2c1ccccc1)c1ccc(F)cc1 [Spiperone] | Inactive |  |
| CCCC[N+](CCCC)(CCCC)CCCC [Tetrabutylammonium bromide] | Inactive |  |
| COC1CC(=C(c2cccs2)c2cccs2)C[N+](C)(C)C1 (stereo not shown) [Timepidium bromide] | Inactive |  |

These compounds were tested against T2, human CYP2C19 (assay: not given). Details: not given.

| Compound | CYP2C19 IC50 (half-maximal inhibitory concentration) | CYP2C19 IC50 |
| --- | --- | --- |
| NC(=O)C(c1ccccc1)(c1ccccc1)[C@@H]1CCN(CCc2ccc3c(c2)CCO3)C1 [Darifenacin hydrobromide] | Inactive |  |
| C1CCC(NC2CCCCC2)CC1 [Dicyclohexylamine] |  | Inactive |
| CN1[C@@H]2CC[C@H]1C[C@@H](NC(=O)n1c(=O)[nH]c3ccccc31)C2 [Itasetron] | Inactive |  |
| c1ccc2c(c1)Sc1ccccc1N2CC1CN2CCC1CC2 (stereo not shown) [Mequitazine] | Inactive |  |
| CN1CCCCC1CCN1c2ccccc2Sc2ccc([S+](C)[O-])cc21 (stereo not shown) [Mesoridazine] | Inactive |  |
| O=C(CCCN1CCC2(CC1)C(=O)NCN2c1ccccc1)c1ccc(F)cc1 [Spiperone] |  | Inactive |
| CCCC[N+](CCCC)(CCCC)CCCC [Tetrabutylammonium bromide] |  | Inactive |
| COC1CC(=C(c2cccs2)c2cccs2)C[N+](C)(C)C1 (stereo not shown) [Timepidium bromide] |  | Inactive |

Each compound was assayed against CYP3A4 (Homo sapiens, UniProt P08684) (assay: not given). Details: not given.
CYP3A4, sequence (P08684 whole entry): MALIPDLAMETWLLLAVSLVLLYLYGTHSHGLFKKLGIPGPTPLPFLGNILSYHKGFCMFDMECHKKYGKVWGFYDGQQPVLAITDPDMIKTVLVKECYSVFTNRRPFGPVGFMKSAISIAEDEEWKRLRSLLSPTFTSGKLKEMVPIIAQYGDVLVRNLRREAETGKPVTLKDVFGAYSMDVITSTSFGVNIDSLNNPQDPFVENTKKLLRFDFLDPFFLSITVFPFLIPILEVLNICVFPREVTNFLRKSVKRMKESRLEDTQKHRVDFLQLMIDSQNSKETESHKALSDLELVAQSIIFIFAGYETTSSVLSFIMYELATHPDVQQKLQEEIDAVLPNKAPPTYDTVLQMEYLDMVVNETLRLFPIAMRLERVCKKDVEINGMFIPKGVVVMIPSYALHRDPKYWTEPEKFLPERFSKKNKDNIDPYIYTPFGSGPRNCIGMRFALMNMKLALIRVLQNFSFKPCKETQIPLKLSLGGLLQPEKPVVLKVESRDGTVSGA

| Compound | CYP3A4 IC50 | CYP3A4 IC50 (half-maximal inhibitory concentration) |
| --- | --- | --- |
| CN1CCC(N(Cc2ccccc2)c2ccccc2)CC1 [Bamipine] | Inactive |  |
| NC(=O)C(c1ccccc1)(c1ccccc1)[C@@H]1CCN(CCc2ccc3c(c2)CCO3)C1 [Darifenacin hydrobromide] |  | Inactive |
| C1CCC(NC2CCCCC2)CC1 [Dicyclohexylamine] | Inactive |  |
| OC(CCCN1CCCCC1)(c1ccccc1)c1ccccc1 [Diphenidol] |  | Inactive |
| CC(Cc1ccccc1)N(C)Cc1ccco1 (stereo not shown) [Furfenorex] | Inactive |  |
| CN1[C@@H]2CC[C@H]1C[C@@H](NC(=O)n1c(=O)[nH]c3ccccc31)C2 [Itasetron] |  | Inactive |
| c1ccc2c(c1)Sc1ccccc1N2CC1CN2CCC1CC2 (stereo not shown) [Mequitazine] |  | Inactive |
| CN1CCCCC1CCN1c2ccccc2Sc2ccc([S+](C)[O-])cc21 (stereo not shown) [Mesoridazine] |  | Inactive |
| CN1CCCC(CC2c3ccccc3Sc3ccccc32)C1 (stereo not shown) [Metixene hydrochloride] |  | Inactive |
| O=C(CCCN1CCC2(CC1)C(=O)NCN2c1ccccc1)c1ccc(F)cc1 [Spiperone] | Inactive |  |
| CCCC[N+](CCCC)(CCCC)CCCC [Tetrabutylammonium bromide] | Inactive |  |
| COC1CC(=C(c2cccs2)c2cccs2)C[N+](C)(C)C1 (stereo not shown) [Timepidium bromide] | Inactive |  |
